For this test, the target named is T1, Estrogen receptor (Homo sapiens, UniProt P03372).
T1 sequence (P03372 whole entry): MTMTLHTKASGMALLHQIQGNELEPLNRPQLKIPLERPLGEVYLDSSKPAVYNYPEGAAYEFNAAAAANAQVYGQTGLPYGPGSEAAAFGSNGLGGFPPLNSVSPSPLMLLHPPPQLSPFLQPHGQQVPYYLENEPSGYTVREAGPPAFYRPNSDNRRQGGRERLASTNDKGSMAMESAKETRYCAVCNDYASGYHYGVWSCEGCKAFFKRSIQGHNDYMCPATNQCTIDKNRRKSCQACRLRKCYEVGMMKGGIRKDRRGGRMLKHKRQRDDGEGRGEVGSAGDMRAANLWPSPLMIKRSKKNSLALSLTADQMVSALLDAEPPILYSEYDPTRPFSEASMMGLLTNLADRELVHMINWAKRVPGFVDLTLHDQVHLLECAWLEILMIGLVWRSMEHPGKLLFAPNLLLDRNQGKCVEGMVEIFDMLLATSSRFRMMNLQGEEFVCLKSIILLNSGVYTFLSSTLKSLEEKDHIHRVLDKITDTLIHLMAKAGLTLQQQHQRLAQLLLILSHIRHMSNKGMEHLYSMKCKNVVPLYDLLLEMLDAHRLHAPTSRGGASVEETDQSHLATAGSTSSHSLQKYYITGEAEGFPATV
The experiment in a line: Displacement of fluorescent labeled-ligand from ERalpha (unknown origin) by competitive binding assay.

Structures are written as SMILES. pIC50: −log10 of the molar value.

Molecule `CC/C(=C(\c1ccccc1)c1cccc(OCCCN2CCCCC2)c1)c1ccccc1` had a negative logarithm of the IC50 (pIC50) of 6.48.

In turn, `CC/C(=C(\c1ccc(O)cc1)c1cccc(OCCN(CC)CC)c1)c1ccccc1` showed a negative-log IC50 (pIC50) of 7.45.

Regarding `CC/C(=C(\c1ccccc1)c1cccc(OCCCN(CC)CC)c1)c1ccccc1`, the pIC50 is 6.46.

With `CC/C(=C(\c1ccc(O)cc1)c1cccc(OCCN2CCCCC2)c1)c1ccccc1`, the pIC50 was 7.68.

Consider `CC/C(=C(\c1ccc(O)cc1)c1cccc(OCCCN(C)C)c1)c1ccccc1`, for which the negative-log IC50 (pIC50) was 8.06.

In the case of `CC/C(=C(\c1ccccc1)c1cccc(OCCN2CCCC2)c1)c1ccccc1`, the negative logarithm of the IC50 (pIC50) was 7.09.

Molecule `CC/C(=C(\c1ccc(O)cc1)c1cccc(OCCCN2CCCC2)c1)c1ccccc1` showed a negative logarithm of the IC50 (pIC50) of 7.97.

`CC/C(=C(\c1ccccc1)c1cccc(OCCCN(C)C)c1)c1ccccc1` had a negative logarithm of the IC50 (pIC50) of 6.91.

Turning to `CC/C(=C(\c1ccc(O)cc1)c1cccc(OCCN2CCCC2)c1)c1ccccc1`, the pIC50 is 7.79.

On to `CC/C(=C(\c1ccc(O)cc1)c1cccc(OCCN(C)C)c1)c1ccccc1`, for which the negative logarithm of the IC50 (pIC50) was 7.61.

`CC/C(=C(\c1ccccc1)c1cccc(OCCN(C)C)c1)c1ccccc1` gave a negative-log IC50 (pIC50) of 6.59.

Regarding `CC/C(=C(\c1ccccc1)c1cccc(OCCN2CCCCC2)c1)c1ccccc1`, the pIC50 was 6.37.

Regarding `CC/C(=C(\c1ccc(O)cc1)c1cccc(OCCCN(CC)CC)c1)c1ccccc1`, the negative logarithm of the IC50 (pIC50) was 7.82.

`CC/C(=C(\c1ccccc1)c1cccc(OCCCN2CCCC2)c1)c1ccccc1` had a pIC50 of 6.44.

`CC/C(=C(\c1ccc(O)cc1)c1cccc(OCCCN2CCCCC2)c1)c1ccccc1` gave a pIC50 of 7.41.

On to `CC/C(=C(\c1ccccc1)c1cccc(OCCN(CC)CC)c1)c1ccccc1`, for which the pIC50 was 6.24.

A word on the pIC50: it is the negative decadic logarithm of the IC50, by convention in mol/L.

For the origin of these results see ChEMBL document CHEMBL5053520, “Searching for an ideal SERM: Mining tamoxifen structure-activity relationships” (Bioorg Med Chem Lett, 2021).
